# Reference: patent US20220331303A1, “USE OF AN OREXIN 2 RECEPTOR AGONIST FOR THE TREATMENT OF EXCESSIVE SLEEPINESS” (Takeda Pharmaceutical Company Limited, priority 2019, published 2022)
# System: sleep-deprived healthy volunteers
# Experiment: Karolinska Sleepiness Scale (KSS) in sleep-deprived healthy volunteers
# Format: in vivo, human
# Settings: for KSS Median / KSS Min / KSS Max / KSS Mean (SD): Compound A 112 mg
# Experimental: During the day before dosing on Day 1, participants were administered the KSS at scheduled timepoints. A practice MWT session was performed on Day 1 treatment period 1 (only once during the entire study) to familiarize subjects with the procedures. Study drug was administered in the clinic in the evening on Day 1 of each treatment period. Subjects underwent the MWT and KSS at specified timepoints after the start of the infusion. Subjects were required to stay awake between the MWT tests. Following completion of the IV infusion on Day 2, subjects underwent an additional MWT test. When the final MWT test and cognitive testing were completed, subjects were allowed to sleep (recovery sleep) for approximately 6 hours. PSG recording was collected during this time. Subjects were discharged from the unit after completion on Day 2 with continuing actigraphy upon discharge (to begin on Day −6 before the next treatment period). The interval between each subsequent treatment period was at least 7 days to ensure that the subject's circadian rhythm had returned to a normal cycle. Subject's vital signs, including BP, were monitored during the dosing and testing period. Blood samples for determination of Compound A plasma concentrations were collected at specified timepoints on Days 1 and 2 of each treatment period. Subjects completed the Columbia-Suicide Severity Rating Scale (C-SSRS) during screening, before study drug administration, and before discharge on Day 2 of each treatment period.
# Secondary endpoints: • PK parameters calculated from plasma concentrations of Compound A. • Scores for sleepiness on the Karolinska Sleepiness Scale (KSS).
# The secondary efficacy endpoint was sleepiness/alertness as assessed by KSS at 14, 10, 6, and 2 hours predose (approximately between 7:45 AM to 7:45 PM); 2, 2.75, 4.75, 6.75, and 8.75 hours post infusion start (approximately between mid-night to 7 AM in the morning); and at 1.75 hours post infusion end. A higher value indicates more sleepiness, a lower value indicates more alertness. Prior to infusion, there were no statistically significant differences at any time point of observation in KSS score for Compound A 44 and 112 mg treatments when compared to placebo. […] On the average, for modafinil and Compound A 44 and 112 mg, there were about 1.6 to 3.7 points increase in the KSS postdose/the infusion start, relative to that prior to dosing during the daytime. However, for placebo, the increase in the average KSS is 4.9.
# [1] = HD: Compound A 112 mg, 1.75 HOURS POST INFUSION END
# [2] = HD: Compound A 112 mg, 2 HOURS PREDOSE
# [3] = HD: Compound A 112 mg, 2.75 HOURS POST INFUSION START
# [4] = HD: Compound A 112 mg, 4.75 HOURS POST INFUSION START
# [5] = HD: Compound A 112 mg, 6 HOURS PREDOSE
# [6] = HD: Compound A 112 mg, 6.75 HOURS POST INFUSION START
# [7] = HD: Compound A 112 mg, 8.75 HOURS POST INFUSION START
# [8] = HD: Compound A 112 mg, 10 HOURS PREDOSE
# [9] = HD: Compound A 112 mg, 14 HOURS PREDOSE
# [10] = HD: Compound A 112 mg, DELTA: AVERAGE POST - AVERAGE PRIOR
# [11] = LD: Compound A 44 mg, 1.75 HOURS POST INFUSION END
# [12] = LD: Compound A 44 mg, 2 HOURS PREDOSE
# [13] = LD: Compound A 44 mg, 2.75 HOURS POST INFUSION START
# [14] = LD: Compound A 44 mg, 4.75 HOURS POST INFUSION START
# [15] = LD: Compound A 44 mg, 6 HOURS PREDOSE
# [16] = LD: Compound A 44 mg, 6.75 HOURS POST INFUSION START
# [17] = LD: Compound A 44 mg, 8.75 HOURS POST INFUSION START
# [18] = LD: Compound A 44 mg, 10 HOURS PREDOSE
# [19] = LD: Compound A 44 mg, 14 HOURS PREDOSE
# [20] = LD: Compound A 44 mg, DELTA: AVERAGE POST - AVERAGE PRIOR
structure (smiles),measurement,setting,value
"COC(=O)N1CCC[C@H](NS(C)(=O)=O)[C@@H]1CO[C@H]1CC[C@@H](c2ccccc2)CC1 [Compound A, methyl (2R,3S)-3-((methylsulfonyl)amino)-2-(((cis-4-phenylcyclohexyl)oxy)methyl)piperidine-1-carboxylate]",KSS Median,6 HOURS PREDOSE,3.0
same,KSS Min,6 HOURS PREDOSE,1
same,KSS Max,6.75 HOURS POST INFUSION START,9
same,KSS Mean (SD),6.75 HOURS POST INFUSION START,5.2 (1.72)
same,KSS Median,6.75 HOURS POST INFUSION START,5.0
same,KSS Min,6.75 HOURS POST INFUSION START,2
same,KSS Max,8.75 HOURS POST INFUSION START,9
same,KSS Mean (SD),8.75 HOURS POST INFUSION START,6.1 (1.95)
same,KSS Median,8.75 HOURS POST INFUSION START,6.0
same,KSS Min,8.75 HOURS POST INFUSION START,3
same,KSS Max,10 HOURS PREDOSE,7
same,KSS Mean (SD),10 HOURS PREDOSE,2.5 (1.47)
same,KSS Median,10 HOURS PREDOSE,2.0
same,KSS Min,10 HOURS PREDOSE,1
same,KSS Max,14 HOURS PREDOSE,7
same,KSS Mean (SD),14 HOURS PREDOSE,3.3 (1.74)
same,KSS Median,14 HOURS PREDOSE,3.0
same,KSS Min,14 HOURS PREDOSE,1
same,KSS Sleepy/Alert LS Mean,[1],8.01
same,KSS Sleepy/Alert LS Mean Difference vs Placebo Estimate,[1],−0.14
same,KSS Sleepy/Alert LS Mean,[2],3.46
same,KSS Sleepy/Alert LS Mean Difference vs Placebo Estimate,[2],−0.44
same,KSS Sleepy/Alert LS Mean,[3],3.24
same,KSS Sleepy/Alert LS Mean Difference vs Placebo Estimate,[3],−3.61
same,KSS Sleepy/Alert LS Mean,[4],3.85
same,KSS Sleepy/Alert LS Mean Difference vs Placebo Estimate,[4],−4.30
same,KSS Sleepy/Alert LS Mean,[5],2.51
same,KSS Sleepy/Alert LS Mean Difference vs Placebo Estimate,[5],−0.29
same,KSS Sleepy/Alert LS Mean,[6],5.18
same,KSS Sleepy/Alert LS Mean Difference vs Placebo Estimate,[6],−3.32
same,KSS Sleepy/Alert LS Mean,[7],6.07
same,KSS Sleepy/Alert LS Mean Difference vs Placebo Estimate,[7],−2.26
same,KSS Sleepy/Alert LS Mean,[8],2.51
same,KSS Sleepy/Alert LS Mean Difference vs Placebo Estimate,[8],0.01
same,KSS Sleepy/Alert LS Mean,[9],3.29
same,KSS Sleepy/Alert LS Mean Difference vs Placebo Estimate,[9],0.24
same,KSS Sleepy/Alert LS Mean,"HD: Compound A 112 mg, AVERAGE POST INFUSION START (2.75, 4.75, 6.75 AND 8.75 HOURS)",4.58
same,KSS Sleepy/Alert LS Mean,"HD: Compound A 112 mg, AVERAGE PRIOR TO INFUSION START (14, 10, 6, 2 HOURS PREDOSE)",2.95
same,KSS Sleepy/Alert LS Mean,[10],1.64
same,KSS Sleepy/Alert LS Mean Difference vs Placebo Estimate,[10],−3.26
same,KSS Sleepy/Alert LS Mean,[11],8.46
same,KSS Sleepy/Alert LS Mean Difference vs Placebo Estimate,[11],0.31
same,KSS Sleepy/Alert LS Mean,[12],4.01
same,KSS Sleepy/Alert LS Mean Difference vs Placebo Estimate,[12],0.11
same,KSS Sleepy/Alert LS Mean,[13],4.85
same,KSS Sleepy/Alert LS Mean Difference vs Placebo Estimate,[13],−2.00
same,KSS Sleepy/Alert LS Mean,[14],6.46
same,KSS Sleepy/Alert LS Mean Difference vs Placebo Estimate,[14],−1.69
same,KSS Sleepy/Alert LS Mean,[15],2.79
same,KSS Sleepy/Alert LS Mean Difference vs Placebo Estimate,[15],−0.01
same,KSS Sleepy/Alert LS Mean,[16],7.79
same,KSS Sleepy/Alert LS Mean Difference vs Placebo Estimate,[16],−0.71
same,KSS Sleepy/Alert LS Mean,[17],8.07
same,KSS Sleepy/Alert LS Mean Difference vs Placebo Estimate,[17],−0.26
same,KSS Sleepy/Alert LS Mean,[18],2.79
same,KSS Sleepy/Alert LS Mean Difference vs Placebo Estimate,[18],0.29
same,KSS Sleepy/Alert LS Mean,[19],2.85
same,KSS Sleepy/Alert LS Mean Difference vs Placebo Estimate,[19],−0.20
same,KSS Sleepy/Alert LS Mean,"LD: Compound A 44 mg, AVERAGE POST INFUSION START (2.75, 4.75, 6.75 AND 8.75 HOURS)",6.79
same,KSS Sleepy/Alert LS Mean,"LD: Compound A 44 mg, AVERAGE PRIOR TO INFUSION START (14, 10, 6, 2 HOURS PREDOSE)",3.11
same,KSS Sleepy/Alert LS Mean,[20],3.68
same,KSS Sleepy/Alert LS Mean Difference vs Placebo Estimate,[20],−1.22
